Source: PMC8409970, “In vitro and in silico studies of bis (indol-3-yl) methane derivatives as potential α-glucosidase and α-amylase inhibitors” (Journal of Enzyme Inhibition and Medicinal Chemistry, 2021)

Key:
α-amylase [1] = biological target: T1, α-amylase (Sus scrofa, UniProt P00690); experiment: Inhibition mechanism study of α-amylase inhibitor (enzyme concentration plots, Lineweaver-Burk plots); assay type: biochemical; conditions: for Inhibition type against α-amylase: Lineweaver-Burk plots; for KIS value (μM) against α-amylase: binding of inhibitor to enzyme-substrate complex; for Reversibility of α-amylase inhibition: plots of enzyme concentration vs remaining enzyme activity
T1 sequence (P00690 16-511): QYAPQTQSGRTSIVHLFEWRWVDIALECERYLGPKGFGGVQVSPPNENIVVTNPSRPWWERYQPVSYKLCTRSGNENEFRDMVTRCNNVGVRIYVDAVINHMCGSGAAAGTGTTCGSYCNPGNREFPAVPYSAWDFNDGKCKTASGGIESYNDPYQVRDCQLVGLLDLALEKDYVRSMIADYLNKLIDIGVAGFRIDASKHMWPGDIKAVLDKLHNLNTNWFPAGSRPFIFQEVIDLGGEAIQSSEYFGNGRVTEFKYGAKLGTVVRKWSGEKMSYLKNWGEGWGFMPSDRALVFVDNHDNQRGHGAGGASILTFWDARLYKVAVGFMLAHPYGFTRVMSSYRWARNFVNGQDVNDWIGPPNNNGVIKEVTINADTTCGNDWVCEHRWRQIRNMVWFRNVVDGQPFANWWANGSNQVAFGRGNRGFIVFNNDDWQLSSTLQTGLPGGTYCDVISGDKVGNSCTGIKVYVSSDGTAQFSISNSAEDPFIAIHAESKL
Description: The highest potent inhibitory compounds 5 g, 5 h, and 5 s were evaluated their inhibition mechanism. […] Lineweaver-Burk plots were used to analyse the inhibitory kinetics of compounds 5 g, 5 h, and 5 s. […] Besides, the KI and KIS values of compounds 5 g, 5 h, and 5 s were measured, showing KI values were higher than KIS values (Table 3).
(§1) The inhibition mechanism of compounds 5 g, 5 h, and 5S was also analysed. The enzyme inhibitory kinetics was detected using plots of enzyme concentration vs remaining enzyme activity at different inhibitor concentrations, and the substrate inhibitory kinetics was obtained from Lineweaver-Burk plot of remaining enzyme activity vs substrate concentration in the presence of different inhibitor concentrations.

HepG2 cells = experiment: In vitro cytotoxicity assay (MTT) on HepG2 cells; assay type: cell-based, Human; conditions: 20 ∼ 80 μM, 24 h
Description: (§2) Moreover, the preliminary in vitro safety of compounds 5e, 5 g, 5 h, and 5 s were tested on Mouse Preadipocytes cells (3T3-L1) and Human liver cancer cells (HepG2) using MTT method and the results were shown in Figure 11.
(§3) The 3T3-L1 cells or HepG2 cells were cultured in DMEM medium containing 10% foetal bovine serum, 100 U/mL penicillin and 0.1 mg/mL streptomycin in a humidified incubator with a 5% CO2 atmosphere at 37 °C. Cells in the logarithmic growth phase were used for this assay. After 5 × 10^3 3T3-L1 cells were seeded in 96 well plates for 24 h, compound with different concentration was added into each well for 24 h. MTT reagent (100 μL, 0.5 mg/mL) was added to each well for 4 h incubation. After the supernatant was discarded, 100 μL of DMSO was added. The absorbance was measured at 490 nm. Each sample was performed in 3 parallel experiments.

3T3-L1 cells = experiment: In vitro cytotoxicity assay (MTT) on 3T3-L1 cells; assay type: cell-based, Mouse; conditions: 20 ∼ 80 μM, 24 h
Description: as §2, §3

α-glucosidase [2] = biological target: T2, α-glucosidase (Saccharomyces cerevisiae, UniProt P53341); experiment: Inhibition mechanism study of α-glucosidase inhibitor (enzyme concentration plots, Lineweaver-Burk plots); assay type: biochemical; conditions: for Inhibition type against α-glucosidase: Lineweaver-Burk plots; for KIS value (μM) against α-glucosidase: binding of inhibitor to enzyme-substrate complex; for Reversibility of α-glucosidase inhibition: plots of enzyme concentration vs remaining enzyme activity
Description: The relationship of enzyme concentration with enzyme activity in presence of compounds 5e, 5 g, and 5 h was firstly investigated.
The inhibitory kinetics of compounds 5e, 5 g, and 5 h on α-glucosidase were studied using Lineweaver-Burk plots.
Besides, we also determined the equilibrium constants of binding of inhibitors to free enzymes (KI) and enzyme-substrate complexes (KIS) through plots of slope (Km/Vm) and vertical intercept (1/Vm) vs inhibitor concentration.
as §1, with “g, 5e, and” for “g,”, “h” for “h, and 5S”, “analysed using similar above method.” for “also analysed.”, “concentrations.[32]” for “concentrations.”

α-glucosidase [3] = biological target: T2, α-glucosidase; experiment: α-Glucosidase inhibition assay (PNPG substrate); assay type: biochemical; conditions: pH 6.8, 37 °C
Description: The in vitro α-glucosidase inhibitory activities of all synthesised compounds were evaluated using p-nitrophenyl-α-D-glucopyranoside (PNPG) as substrate.
The α-glucosidase inhibitory activity of compounds 5a ∼ c, 6a ∼ c, and 7a ∼ c were performed according to our previous report.[30]^,[31] The 10 μL of α-glucosidase enzyme (final concentration 0.1 U/mL) and 10 μL of test compounds (dissolved in DMSO) were added into 130 μL of phosphate buffer (0.1 M, pH 6.8), followed 10 min incubation at 37 °C. Then 50 μL of PNPG (final concentration 0.25 mM) was added, and mixture was continuely incubated for 20 min at 37 °C. The absorbance at 405 nm was measured using Multimodel Reader. The percentage of enzyme inhibition was calculated: % Inhibition = [(A1– A0)/A0] × 100%, where A1 was the absorbance with the test compound, and A0 was the absorbance without the test compound. The IC50 value of compound was obtained from the plot of inhibition percentage vs test compound at different concentrations. […] The experiment was performed in duplicate.

α-amylase [4] = biological target: T1, α-amylase; experiment: α-Amylase inhibition assay (starch/DNS); assay type: biochemical; conditions: starch substrate, pH 6.9, 37 °C
Description: The α-amylase inhibitory activity of all tested compounds was performed according to previous report.[33]^,[34] A 10 μL of α-amylase enzyme solution (final concentration 0.25 U/mL), 10 μL of test compounds (dissolved in DMSO), and 80 μL of phosphate buffer (20 mM, pH 6.9) were mixed and incubated for 10 min at 37 °C. Next, 100 μL starch solution (final concentration 0.5%) was added into the mixture followed by an incubation of 10 min. After 100 μL DNS (containing 1 M Potassium sodium tartrate and 48 mM 3,5-Dinitrosalicylic acid) was added, the mixture was kept incubated in boiling water for 15 min. Finally, the absorbance was measured at 540 nm after dilution of solution by adding 900 μL distilled water. The percentage of enzyme inhibition was calculated: % Inhibition = [(A1– A0)/A0] × 100%, where A1 was the absorbance with the test compound, and A0 was the absorbance without the test compound. The IC50 value of compound was obtained from the plot of inhibition percentage vs test compound at different concentrations. […] The experiment was performed in duplicate.

T2 sequence (P53341 whole entry): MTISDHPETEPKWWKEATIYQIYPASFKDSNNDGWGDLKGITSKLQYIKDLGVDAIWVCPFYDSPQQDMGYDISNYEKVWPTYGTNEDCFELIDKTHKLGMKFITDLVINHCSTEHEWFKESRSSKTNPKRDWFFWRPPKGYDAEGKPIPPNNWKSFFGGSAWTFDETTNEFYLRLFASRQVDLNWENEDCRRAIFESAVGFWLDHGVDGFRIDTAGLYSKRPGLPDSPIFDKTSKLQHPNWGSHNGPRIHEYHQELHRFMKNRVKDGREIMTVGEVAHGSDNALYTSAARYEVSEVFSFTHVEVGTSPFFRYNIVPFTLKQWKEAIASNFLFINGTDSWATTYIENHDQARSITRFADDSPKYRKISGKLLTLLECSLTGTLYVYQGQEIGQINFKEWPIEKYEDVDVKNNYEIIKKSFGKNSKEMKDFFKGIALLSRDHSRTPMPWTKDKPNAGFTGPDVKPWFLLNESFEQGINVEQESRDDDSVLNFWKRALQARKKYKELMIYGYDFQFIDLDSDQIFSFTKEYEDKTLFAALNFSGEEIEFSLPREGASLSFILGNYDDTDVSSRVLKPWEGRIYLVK

Molecule	Inhibition type against α-amylase (α-amylase [1])	Inhibition type against α-amylase (α-amylase [1]; listed as 5 g)	KIS value (μM) against α-amylase (α-amylase [1]) [µM]	Reversibility of α-amylase inhibition (α-amylase [1])	Effect on the viability of HepG2 cells (HepG2 cells)	Effect on the viability of 3T3-L1 cells (3T3-L1 cells)	Inhibition type against α-glucosidase (α-glucosidase [2])	Inhibition type against α-glucosidase (α-glucosidase [2]; listed as 5 g)	KIS value (μM) against α-glucosidase (α-glucosidase [2]) [µM]	Reversibility of α-glucosidase inhibition (α-glucosidase [2])	Inhibition type against α-amylase (α-amylase [1]; listed as 5 s)	melting point [°C]	IC50 (α-glucosidase [3]) [µM]	IC50 (α-amylase [4]) [µM]	Inhibition type against α-amylase (α-amylase [1]; listed as 5 h)	Inhibition type against α-glucosidase (α-glucosidase [2]; listed as 5 h)
N#CC(c1c[nH]c2ccc(Br)cc12)c1c[nH]c2ccc(Br)cc12 [Compound 5g, 2,2-Bis(5-bromo-1H-indol-3-yl)acetonitrile]	Mixed type	mixed inhibitors	25.02	reversibly inhibited	no effect on the viability	no effect on the viability	Mixed type	mixed-type inhibitors	1.59	reversible						
Cn1cc(C(C#N)c2cn(C)c3ccc(Br)cc23)c2cc(Br)ccc21 [Compound 5s, 2,2-Bis(5-bromo-1-methyl-1H-indol-3-yl)acetonitrile]	Mixed type		9.01	reversibly inhibited	no effect on the viability	no effect on the viability					mixed inhibitors	177.7 to 181.7				
2,2-Di(1H-pyrrol-3-yl)acetonitrile [Compound 6c]													130 ± 3.81	419 ± 11.3		
N#CC(c1c[nH]c2cc(Cl)ccc12)c1c[nH]c2cc(Cl)ccc12 [Compound 5e, 2,2-Bis(6-chloro-1H-indol-3-yl)acetonitrile]					no effect on the viability	no effect on the viability	mixed-type inhibitors		2.11	reversible		175.6 to 178.2				
N#CC(c1c(-c2ccccc2)[nH]c2ccccc12)c1c(-c2ccccc2)[nH]c2ccccc12 [Compound 5h, 2,2-Bis(2-phenyl-1H-indol-3-yl)acetonitrile]	Mixed type		1.63	reversibly inhibited	no effect on the viability	no effect on the viability	Mixed type		1.69	reversible		112 to 117.9			mixed inhibitors	mixed-type inhibitors
2,2-Bis(1-methyl-1H-pyrrol-3-yl)acetonitrile [Compound 6a]													220 ± 5.02	464 ± 9.47		
